Test results from paper PMC12724174, “Biodegradation of the endocrine-disrupting compound bisphenol F by Sphingobium yanoikuyae DN12” (Applied and Environmental Microbiology, 2025).

Tests used:
[1] = tested on: T1, BpfAB (BpfA1B1); assay: HPLC of residual substrate; Michaelis-Menten nonlinear fit; assay type: biochemical, Sphingobium yanoikuyae; details: apparent; optimal pH 8.0 and 55°C; 0.1 mM FAD, 0.2 mM phenazine methosulfate in standard assay; BpfB mostly apo
T1 construct: gene bpfA1; bpfA1B1 co-expressed from pET-29a in E. coli BL21(DE3), N-terminal His6 on BpfA (MHHHHHHPLSVAE by primer), Ni-NTA; total 663 aa; BpfB mostly apo (little heme); C-terminus of BpfB VEPKP by primer; with Cytochrome c BpfB

[2] = tested on: T2, BpfC (BpfC1); assay: as above; assay type: biochemical, Sphingobium yanoikuyae; details: apparent; optimal pH 8.5 and 40°C; 0.02 mM FAD, 0.4 mM nicotinamide adenine dinucleotide phosphate in standard assay; aerobic
T2 construct: full length, 402 aa (1,209 bp), C-terminal His6 (pET-29a), E. coli BL21(DE3), Ni-NTA; N-terminus MSGNDR and C-terminus FAESVQ-LEHHHHHH by primers

| SMILES | Km [1] | Km [2] |
| --- | --- | --- |
| Oc1ccc(Cc2ccc(O)cc2)cc1 [BPF, Bisphenol F] | 19.3 ± 6.66 µM | – |
| O=C(c1ccc(O)cc1)c1ccc(O)cc1 [DHBP, 4,4'-dihydroxybenzophenone] | – | 21.3 ± 2.88 µM |
